Results: US20240156717A1, “COMPOSITION FOR ENHANCING SKIN WHITENING EFFECT ACCORDING TO AUTOPHAGY ACTIVITY WITH NYPA FRUTICANS EXTRACT AS AN ACTIVE INGREDIENT” (KYUNGPOOK NATIONAL UNIVERSITY INDUSTRY - ACADEMIC …, priority 2022, published 2024)

How the values were obtained:
Type in all cases: cell-based
[1] = system: Mouse melanocytes (Melan-a); assay: Melanin content analysis in IBMX-treated melanocytes; details: 72 hours, FIG. 2
Experimental: (§1) Mouse melanocytes (Melan-a) were inoculated into a 24-well plate at 1×10^5 cells/mL and cultured overnight. Thereafter, the medium was replaced with a new medium containing 100 μM IBMX (melanogenesis promoter) and 10 μg/mL and 100 μg/mL of the Nypa fruticans extract of the present disclosure, and reacted for 72 hours, and the existing medium was washed. Thereafter, the cells were washed twice with PBS and dissolved in 1 N NaOH.
The melanin content was analyzed at 405 nm with a spectrophotometer, and arbutin was used as a positive control group.

[2] = system: melanogenesis-related genes (TYR, TYRP-1, TYRP-2, MITF, MC1R) in mouse melanocytes (Melan-a); assay: Melanogenesis inhibitory effect (RT-PCR), melanogenesis-related mRNA expression; details: IBMX treatment alone, FIG. 3
Experimental: as §1
In melanogenesis, tyrosinase (TYR), tyrosinase-related protein-1 (TYRP-1) and tyrosinase-related protein-2 (TYRP-2) were key factors. […] In the experiment, phosphorylated CREB was evaluated as a transcription factor and melanogenesis-related genes such as tyrosinase, TYRP-1, TYRP-2, MITF, and MC1R in mouse melanocytes (Melan-a) to confirm a melanogenesis inhibitory effect.
Total RNA (2 μg) was extracted from the mouse melanocytes (Melan-a) using TRIzol (Invitrogen Co., Carlsbad, CA, USA). […] Quantification of bands was calculated using Image Lab™ software version 5.2.1 (Bio-Rad Laboratories, CA, USA).

[3] = system: melanogenesis-related proteins (TYR, TYRP-2, MITF) in mouse melanocytes (Melan-a); assay: Melanogenesis inhibitory effect (Western blot), melanogenesis-related protein expression; details: IBMX treatment alone, FIG. 4
Experimental: as §1
Mouse melanocytes (Melan-a) were lysed with a RIPA buffer (ELPIS Biotech. Inc., Korea) containing protease inhibitor cocktail I (P8340; Sigma-Aldrich Korea) and phosphatase inhibitor cocktail II (P5726; Sigma-Aldrich Korea) and the extracted proteins were quantified using a Bradford protein method. Each protein was separated by 10% SDS-PAGE, and then transferred to a nitrocellulose (NC) membrane (0.45 μm; 1620115; Bio-Rad, Munich, Germany) and blocked with 5% skim milk or BSA in TBST for 1 hour. The membrane was cultured overnight with primary antibodies at 4° C. The membrane was washed four times at 15-minute intervals, and then reacted with anti-mouse or rabbit IgG-HRP as a secondary antibody. The proteins were detected using the ECL Solution System (ChemiDoc™ XRS+; Bio-Rad), and protein bands were quantified using Image Lab™ software (Bio-Rad Laboratories, CA, USA).

[4] = system: Mouse melanocytes (Melan-a); assay: Melanin content with rapamycin (autophagy inducer) or bafilomycin (autophagy inhibitor); details: bafilomycin (autophagy inhibitor) treatment, FIG. 8
Experimental: as §1, with “hours.” for “hours, and the existing medium was washed.”, “treated” for “washed twice”, “rapamycin (autophagy inducer) or bafilomycin (autophagy inhibitor),” for “PBS”, “the melanin content was evaluated.” for “dissolved in 1 N NaOH.”

OC[C@H]1O[C@@H](Oc2ccc(O)cc2)[C@H](O)[C@@H](O)[C@@H]1O [arbutin]
melanin content reduction effect ([1]; IBMX-treated Melan-a, extract 100 μg/mL, arbutin positive control): melanin content reduction effect

CC(C)Cn1c(=O)n(C)c(=O)c2[nH]cnc21 [IBMX]
increase of melanin content compared to IBMX-untreated control group ([1]; 100 μM IBMX, absorbance 405 nm): about 1.5 times
melanogenesis-related mRNA expression [2]: increased
melanogenesis-related protein levels [3]: increased

CO/C1=C\C(C)=C\[C@@H](C)[C@@H](O)[C@@H](C)C/C(C)=C/C=C/[C@H](OC)[C@@H]([C@@H](C)[C@@H](O)[C@H](C)[C@@]2(O)C[C@@H](O)[C@H](C)[C@@H](C(C)C)O2)OC1=O [bafilomycin]
effect on melanin content [4]: did not affect
